Calls of active or inactive are those of the source. The calls are words filed in the database; no cut-off is given here.
Columns and labels:
[1] = system: 3T3-L1; experiment: Effect on PPARdelta mRNA expression in mouse 3T3L1 cells at 10 to 100 uM after 8 days by RT-PCR analysis; format: functional, cell-based
[2] = system: 3T3-L1; experiment: Antiadipogenic activity in mouse 3T3L1 cells assessed as upregulation of PPARalpha mRNA expression after 8 days by RT-PCR analysis; format: functional, cell-based
[3] = system: 3T3-L1; experiment: Downregulation of C/EBPbeta mRNA expression in mouse 3T3L1 cells at 10 to 100 uM after 8 days by RT-PCR analysis; format: functional, cell-based
[4] = system: 3T3-L1; experiment: Antiadipogenic activity in mouse 3T3L1 cells assessed as downregulation of LPL mRNA expression at 10 to 100 uM after 8 days by RT-PCR analysis; format: functional, cell-based
[5] = system: 3T3-L1; experiment: Antiadipogenic activity in mouse 3T3L1 cells assessed as downregulation of C/EBPalpha mRNA expression after 8 days by RT-PCR analysis; format: functional, cell-based
[6] = system: 3T3-L1; experiment: Antiadipogenic activity in mouse 3T3L1 cells assessed as downregulation of PPARgamma mRNA expression after 8 days by RT-PCR analysis; format: functional, cell-based
[7] = system: 3T3-L1; experiment: Antiadipogenic activity in mouse 3T3L1 cells assessed as decrease in intracellular lipid accumulation incubated for 8 days followed by compound wash out measured for 60 mins by Oil Red O staining-based phase contrast microscopic analysis; format: functional, cell-based
[8] = system: 3T3-L1; experiment: Cytotoxicity against mouse 3T3L1 cells assessed as cell viability at < 100 uM after 48 hrs by MTT assay; format: cell-based; conditions: 3t3-l1, 48 h

## O=C(O)[C@H]1O[C@@H](Oc2cc3oc(-c4ccc(O)cc4)cc(=O)c3c(O)c2O)[C@H](O)[C@@H](O)[C@@H]1O [SCUTELLARIN]
[1]
  Activity: inactive
[2]
  Activity: Dose-dependent effect
[3]
  Activity: inactive
[4]
  Activity: Active
[5]
  Activity: Dose-dependent effect
[6]
  Activity: Dose-dependent effect
[7]
  Activity: Dose-dependent effect
[8]
  Activity: Non-toxic

From ChEMBL document CHEMBL2331147, “Scutellarin from Scutellaria baicalensis suppresses adipogenesis by upregulating PPARα in 3T3-L1 cells” (J Nat Prod, 2013)
